Series [1] in a line: Example 1: blood concentrations of P88 and P95 after iloperidone by CYP2D6 genotype, with and without inhibitor. Type of series: in vivo, human. Set-up: unit not given here. Particulars: at Tmax of P88, without inhibitor. From the text:
The research leading to the present invention was designed to examine the effect of different doses of iloperidone relative to the effect of ziprasidone and quetiapine on QTc duration under carefully controlled conditions. To further evaluate the possible relationship between exposure to iloperidone and the comparators to QTc duration, reassessment after pharmacological inhibition of the principle metabolic pathways for each drug, under steady-state conditions, was also planned.
Blood samples for pharmacogenetic analysis were collected at screening. Two polymorphisms previously associated with poor metabolizing status were genotyped in the CYP2D6 locus, and 251 genotypes were collected. The individual genotypes were studied for detection of association between genotype class and concentrations of iloperidone and its metabolites P88 and P95. The functional effect of the polymorphisms was also evaluated by analyzing the effect of the addition of the CYP2D6 inhibitor paroxetine on the concentrations of the parent drug and its metabolites.
The addition of metabolic inhibitors in this study therefore allowed for an evaluation of the effect of increasing blood-concentration of iloperidone and/or its metabolites on QT duration. More specifically, this study allowed for an evaluation of the effect of iloperidone on QTc before and after the addition of the CYP2D6 inhibitor, paroxetine, as well as before and after the addition of the CYP3A4 inhibitor, ketoconazole.
128 individuals consented to the pharmacogenetic study. Blood samples were collected according to the pharmacogenetics protocol and after the consent of patients. The DNA was extracted from whole blood by Covance using the PUREGENE DNA isolation kit (D-50K).
The 128 individuals that participated were a good representation of the total sample of 165 individuals that participated in the trial. 22 of 29 total were from the iloperidone 8 mg bid group, 30 of 34 were from the iloperidone 12 mg bid group, 22 of 31 from the 24 mg qd group, 3 of 5 of the risperidone group, 28 of 33 of the ziprazidone group, and 23 of 33 of the quetiapine group.
The genotype effect of the two CYP2D6 polymorphisms on period 1 concentrations was evaluated using the following ANOVA model. Concentrations of iloperidone, P88, and P95 at Period 1, without inhibitor, at the time at which maximum blood concentration of the parent compound or metabolite was reached (Tmax) were used as the dependent variable, the genotypes of each polymorphism as classes and the treatment as a covariate. In order to adjust for treatment effects after the single dose of iloperidone, the 8 mg bid was coded as 8, the 12 mg bid as 12 and the 24 mg qd as 24.
The function of these polymorphisms on the degree of inhibition of the CYP2D6 enzyme was calculated from the ratio of concentrations of P88 and P95 in period 2, after the addition of the inhibitor of CYP2D6. The concentrations of iloperidone and/or its metabolites (e.g., P88 and P95) may be determined in period 1 and/or period 2 by any known or later-developed method or device, including titration.
In order to understand the functional significance of the two CYP2D6 polymorphisms on the activity of the enzyme, the association of the various genotypes with the relative concentrations of the metabolites P88 and P95 were examined. It is known that P88 is degraded by CYP2D6 and that CYP2D6 is involved in the synthesis of P95. The relative amounts of P88 and P95 would therefore be controlled by the activity of the CYP2D6 enzyme. The ratio of P88/P95 was calculated before inhibition in Period 1 and at the Tmax of the two metabolites, as well as the ratio of P88/P95 in Period 2 after the addition of the CYP2D6 inhibitor paroxetine. In individuals with the wild type enzyme the concentration of P88 is expected to increase in Period 2, while in the same period the concentration of P95 is expected to decline.

Series [2] in a line: interaction study: addition of CYP2D6 inhibitor fluoxetine, AUC. Particulars: addition of CYP2D6 inhibitor fluoxetine along with iloperidone.
The target of series [3] is HERG channel (Homo sapiens, UniProt Q12809). As to the kind of experiment: affinity for the HERG channel. Type of series: binding.
The nature of series [4]: lipophilicity. Format: physicochemical. The note with it: compared to iloperidone.

HERG channel, sequence (Q12809 whole entry): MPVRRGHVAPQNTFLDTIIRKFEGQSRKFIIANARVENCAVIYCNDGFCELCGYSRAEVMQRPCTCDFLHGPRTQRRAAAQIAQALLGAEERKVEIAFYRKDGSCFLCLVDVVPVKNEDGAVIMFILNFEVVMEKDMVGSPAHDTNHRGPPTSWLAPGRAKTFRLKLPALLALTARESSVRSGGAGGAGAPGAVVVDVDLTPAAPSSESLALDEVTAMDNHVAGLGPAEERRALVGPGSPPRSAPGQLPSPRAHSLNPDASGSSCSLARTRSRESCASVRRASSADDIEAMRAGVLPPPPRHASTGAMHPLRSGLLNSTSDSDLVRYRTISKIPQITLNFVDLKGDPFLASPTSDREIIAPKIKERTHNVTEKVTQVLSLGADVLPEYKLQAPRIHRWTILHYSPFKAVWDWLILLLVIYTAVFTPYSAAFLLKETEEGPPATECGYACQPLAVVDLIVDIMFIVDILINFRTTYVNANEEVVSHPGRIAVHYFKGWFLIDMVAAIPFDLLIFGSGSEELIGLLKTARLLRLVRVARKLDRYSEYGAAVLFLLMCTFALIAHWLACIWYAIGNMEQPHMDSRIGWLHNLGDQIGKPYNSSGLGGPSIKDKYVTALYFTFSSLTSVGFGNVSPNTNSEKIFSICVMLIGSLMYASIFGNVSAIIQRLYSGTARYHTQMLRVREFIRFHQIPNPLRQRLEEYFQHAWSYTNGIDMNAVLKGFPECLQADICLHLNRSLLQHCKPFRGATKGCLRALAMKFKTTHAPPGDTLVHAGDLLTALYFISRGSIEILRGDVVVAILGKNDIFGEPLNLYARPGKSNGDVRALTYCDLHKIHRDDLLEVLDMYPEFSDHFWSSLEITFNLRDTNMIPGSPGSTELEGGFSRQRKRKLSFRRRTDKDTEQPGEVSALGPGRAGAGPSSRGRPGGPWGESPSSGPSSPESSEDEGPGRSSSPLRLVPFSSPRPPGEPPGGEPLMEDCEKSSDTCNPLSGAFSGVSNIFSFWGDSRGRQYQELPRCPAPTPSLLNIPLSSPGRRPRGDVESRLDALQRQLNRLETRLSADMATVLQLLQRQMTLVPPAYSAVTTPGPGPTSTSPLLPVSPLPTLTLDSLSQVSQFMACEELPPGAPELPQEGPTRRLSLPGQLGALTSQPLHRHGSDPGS

In the case of `COc1cc(C(C)O)ccc1OCCCN1CCC(c2noc3cc(F)ccc23)CC1` (stereo not drawn) [P88], the “P88 concentrations in Period 1, LSMeans” value in series [1] (CYP2D6C100T CC) is listed as 21.03; in series [1] (CYP2D6C100T CT), 33.16; in series [1] (CYP2D6C100T TT) it was 51.00; in series [1] (CYP2D6G1846A AA), 62.70; in series [1] (CYP2D6G1846A AG), 31.40; in series [1] (CYP2D6G1846A GG), 21.03. Moreover, the “increase of the area under the curve (AUC)” value in series [2] came out at 119%.

For `COc1cc(C(=O)O)ccc1OCCCN1CCC(c2noc3cc(F)ccc23)CC1` [P95], in series [3], the “affinity for the HERG channel” value is on record as “very low affinity”. The lipophilicity entry in series [4] is “less lipophilic”.

The values above are taken from patent US20140039008A1, “METHODS FOR THE ADMINISTRATION OF ILOPERIDONE” (VANDA PHARMACEUTICALS, INC., priority 2004, published 2014).
